Data taken from patent publication US12110286B2, “Benzimidazolone derived inhibitors of BCL6” (Cancer Research Technology Limited, priority 2017, dated 2024).

Molecular target: Trx-6×His-BCL6 (human BCL6 BTB domain covering amino-acid sequence 5-129) (Homo sapiens (Human), UniProt P41182)
Experiment: HTRF in vitro assay (BCL6 / BCOR-AF633 peptide)
Assay type: binding
Details: for activity in the HTRF assay: result in words
Protocol: The % inhibition at each concentration was calculated by normalising FRET ratio to the appropriate high (DMSO with all reagents) and low (DMSO without BCL6) controls.

[1] = further generated data, 1 nM Trx-6×His-BCL6, 300 nM BCOR-AF633 peptide, 0.5 nM anti-6×His-Terbium cryptate
[2] = initially generated data, 10 nM Trx-6×His-BCL6, 300 nM BCOR-AF633 peptide, 1 nM anti-6×His-Terbium cryptate

| HTRF pIC50 [1] | HTRF pIC50 [2] | activity in the HTRF assay | Compound |
| --- | --- | --- | --- |
| 6.09 |  |  | Cc1cc(C)n(-c2ncc(Br)c(Nc3ccc4c(c3)n(CCC(C)(C)O)c(=O)n4C)n2)n1 [Example 15q] |
| 5.48 |  |  | Cn1c(=O)n(CCC(C)(C)O)c2cc(Nc3cc(C(F)(F)F)ncc3Cl)ccc21 [Example 29d, 5-((5-chloro-2-(trifluoromethyl)pyridin-4-yl)amino)-3-(3-hydroxy-3-methylbutyl)-1-methyl-1,3-dihydro-2H-benzo[d]imidazol-2-one] |
| 6.05 |  |  | Cn1c(=O)n(CCC(C)(C)O)c2cc(Nc3nc(N4C[C@@H]5CC[C@@H](C5)C4)ncc3Cl)ccc21 [Example 35n, 5-((2-((1R,5S)-3-azabicyclo[3.2.1]octan-3-yl)-5-chloropyrimidin-4-yl)amino)-3-(3-hydroxy-3-methylbutyl)-1-methyl-1,3-dihydro-2H-benzo[d]imidazol-2-one] |
| 5.38 | 5.52 |  | COC(=O)C(CCn1c(=O)n(C)c2ccc(Nc3ccnc(Cl)c3C#N)cc21)OCC1CC1 (centres unmarked) [Example 10e] |
| 6.46 |  |  | Cn1c(=O)n(CCC(C)(C)O)c2cc(Nc3nc(N4CCC[C@H]4CO)ncc3Cl)ccc21 [Example 31a, (S)-5-((5-chloro-2-(2-(hydroxymethyl)pyrrolidin-1-yl)pyrimidin-4-yl)amino)-3-(3-hydroxy-3-methylbutyl)-1-methyl-1,3-dihydro-2H-benzo[d]imidazol-2-one] |
| 5.73 |  |  | Cn1c(=O)n(C[C@@H]2CCCN2CCF)c2cc(Nc3ccnc(Cl)c3C#N)ccc21 [Example 25f, (S)-2-chloro-4-((3-((1-(2-fluoroethyl)pyrrolidin-2-yl)methyl)-1-methyl-2-oxo-2,3-dihydro-1H-benzo[d]imidazol-5-yl)amino)nicotinonitrile: formic acid (1:1)] |
|  |  | did not exhibit the desired activity | Cn1c(=O)n(CCC(C)(C)O)c2cc(Nc3cc4nccn4cc3Cl)ccc21 [5-((6-chloroimidazo[1,2-a]pyridin-7-yl)amino)-3-(3-hydroxy-3-methylbutyl)-1-methyl-1,3-dihydro-2H-benzo[d]imidazol-2-one] |
|  |  | did not exhibit the desired activity | Cn1c(=O)n(C[C@@H]2CCCN2CC2CC2)c2cc(Nc3ccnc(Cl)c3C#N)ccc21 [(S)-2-chloro-4-((3-((1-(cyclopropylmethyl)pyrrolidin-2-yl)methyl)-1-methyl-2-oxo-2,3-dihydro-1H-benzo[d]imidazol-5-yl)amino)nicotinonitrile] |
|  |  | did not exhibit the desired activity | Cn1c(=O)n(C)c2cc(Nc3ccnc(C(F)(F)F)c3C#N)ccc21 [4-((1,3-dimethyl-2-oxo-2,3-dihydro-1H-benzo[d]imidazol-5-yl)amino)-2-(trifluoromethyl)nicotinonitrile] |
| 5.93 | 5.81 |  | Cn1c(=O)n(CC(O)C(C)(C)O)c2cc(Nc3ccnc(Cl)c3C#N)ccc21 (centres unmarked) [Example 10a, 2-Chloro-4-[[3-(2,3-dihydroxy-3-methyl-butyl)-1-methyl-2-oxo-benzimidazol-5-yl]amino]pyridine-3-carbonitrile] |
| 5.37 |  |  | Cn1c(=O)n(CC2CCCCN2CC(F)(F)F)c2cc(Nc3ccnc(Cl)c3C#N)ccc21 (centres unmarked) [Example 25e, 2-chloro-4-((1-methyl-2-oxo-3-((1-(2,2,2-trifluoroethyl)piperidin-2-yl)methyl)-2,3-dihydro-1H-benzo[d]imidazol-5-yl)amino)nicotinonitrile] |
| 6.53 |  |  | Cn1c(=O)n(CCC(C)(C)O)c2cc(Nc3nc(-n4ccc(C(F)(F)F)n4)ncc3Cl)c(F)cc21 [Example 20r] |
|  |  | did not exhibit the desired activity | Cn1c(=O)n(CC2(CO)COC2)c2cc(Nc3ccnc(Cl)c3C#N)ccc21 [2-chloro-4-((3-((3-(hydroxymethyl)oxetan-3-yl)methyl)-1-methyl-2-oxo-2,3-dihydro-1H-benzo[d]imidazol-5-yl)amino)nicotinonitrile] |
| 6.47 |  |  | C[C@@H]1CN(c2ncc(Cl)c(Nc3ccc4c(c3)n(CCC(C)(C)O)c(=O)n4CCN3CCOCC3)n2)C[C@H](C)C1(F)F [Example 37b, 5-((5-chloro-2-((3S,5R)-4,4-difluoro-3,5-dimethylpiperidin-1-yl)pyrimidin-4-yl)amino)-3-(3-hydroxy-3-methylbutyl)-1-(2-morpholinoethyl)-1,3-dihydro-2H-benzo[d]imidazol-2-one] |
| 5.98 |  |  | C[C@@H]1CN(c2ncc(Cl)c(Nc3cnc4c(c3)n(CCC(C)(C)O)c(=O)n4CCC(C)(C)O)n2)C[C@H](C)C1(F)F [Example 35r, 6-((5-chloro-2-((3R,5S)-4,4-difluoro-3,5-dimethylpiperidin-1-yl)pyrimidin-4-yl)amino)-1,3-bis(3-hydroxy-3-methylbutyl)-1,3-dihydro-2H-imidazo[4,5-b]pyridin-2-one] |
| 5.71 |  |  | Cn1c(=O)n(C[C@@H]2CCCN2CC(F)F)c2cc(Nc3ccnc(Cl)c3C#N)ccc21 [Example 25i, (S)-2-chloro-4-((3-((1-(2,2-difluoroethyl)pyrrolidin-2-yl)methyl)-1-methyl-2-oxo-2,3-dihydro-1H-benzo[d]imidazol-5-yl)amino)nicotinonitrile] |

| HTRF pIC50 [1] | HTRF pIC50 [2] | activity in the HTRF assay | Compound |
| --- | --- | --- | --- |
| 5.29 | 5.55 |  | COC(=O)CCCn1c(=O)n(C)c2ccc(Nc3ccnc(Cl)c3C#N)cc21 [Example 10d] |
| 5.97 | 5.83 |  | COC(=O)C(O)CCn1c(=O)n(C)c2ccc(Nc3ccnc(Cl)c3C#N)cc21 (centres unmarked) [Example 9, Methyl 4-[6-[(2-chloro-3-cyano-4-pyridyl)amino]-3-methyl-2-oxo-benzimidazol-1-yl]-2-hydroxy-butanoate] |
|  |  | did not exhibit the desired activity | Cn1c(=O)n(CCC(C)(C)O)c2cc(Nc3nc(Cl)ncc3Cl)ncc21 [6-((2,5-dichloropyrimidin-4-yl)amino)-1-(3-hydroxy-3-methylbutyl)-3-methyl-1,3-dihydro-2H-imidazo[4,5-c]pyridin-2-one] |
| 5.34 |  |  | CCN1CCC[C@H]1Cn1c(=O)n(C)c2ccc(Nc3ccnc(Cl)c3C#N)cc21 [Example 25c, (S)-2-chloro-4-((3-((1-ethylpyrrolidin-2-yl)methyl)-1-methyl-2-oxo-2,3-dihydro-1H-benzo[d]imidazol-5-yl)amino)nicotinonitrile] |
|  |  | did not exhibit the desired activity | Cn1c(=O)n(CC2CCN2)c2cc(Nc3ccnc(Cl)c3C#N)ccc21 (centres unmarked) [4-((3-(azetidin-2-ylmethyl)-1-methyl-2-oxo-2,3-dihydro-1H-benzo[d]imidazol-5-yl)amino)-2-chloronicotinonitrile] |
| 6.58 |  |  | Cn1ncc2c1CN(c1ncc(Cl)c(Nc3ccc4c(c3)n(CCC(C)(C)O)c(=O)n4C)n1)CC2 [Example 42f, 5-((5-chloro-2-(1-methyl-1,4,5,7-tetrahydro-6H-pyrazolo[3,4-c]pyridin-6-yl)pyrimidin-4-yl)amino)-3-(3-hydroxy-3-methylbutyl)-1-methyl-1,3-dihydro-2H-benzo[d]imidazol-2-one] |
| 5.59 | 5.84 |  | CNC(=O)c1cc(Nc2ccc3c(c2)[nH]c(=O)n3C)c(C#N)c(Cl)n1 [Example 1f, 6-chloro-5-cyano-N-methyl-4-[(1-methyl-2-oxo-3H-benzimidazol-5-yl)amino]pyridine-2-carboxamide] |
|  | 5.84 |  | C#CCCNC(=O)c1cc(Nc2ccc3c(c2)n(CCC(C)C(=O)OC)c(=O)n3C)c(C#N)c(Cl)n1 (centres unmarked) [Example 7b, Methyl 4-[6-[[6-(but-3-ynylcarbamoyl)-2-chloro-3-cyano-4-pyridyl]amino]-3-methyl-2-oxo-benzimidazol-1-yl]-2-methyl-butanoate] |
| 5.37 | 5.37 |  | COC(=O)C(C)CCn1c(=O)n(C)c2ccc(Nc3nc(C)ncc3Cl)cc21 (centres unmarked) [Example 3c, Methyl 4-[6-[(5-chloro-2-methyl-pyrimidin-4-yl)amino]-3-methyl-2-oxo-benzimidazol-1-yl]-2-methyl-butanoate] |
| 5.82 | 5.63 |  | Cn1c(=O)n(CCC(C)(C)O)c2cc(Nc3ccnc(Br)c3C#N)ccc21 [Example 1k, 2-bromo-4-[[3-(3-hydroxy-3-methyl-butyl)-1-methyl-2-oxo-benzimidazol-5-yl]amino]pyridine-3-carbonitrile] |
| 6.36 |  |  | Cn1c(=O)n(CCC(C)(C)O)c2cc(Nc3nc(N4C[C@@H](F)[C@@H](F)C4)ncc3Cl)ccc21 [Example 35h, 5-((5-chloro-2-((3R,4S)-3,4-difluoropyrrolidin-1-yl)pyrimidin-4-yl)amino)-3-(3-hydroxy-3-methylbutyl)-1-methyl-1,3-dihydro-2H-benzo[d]imidazol-2-one] |
| 5.88 |  |  | Cc1cc(C)n(-c2cc(Nc3ccc4c(c3)n(CCC(C)(C)O)c(=O)n4C)c(C#N)cn2)n1 [Example 15o] |
|  |  | did not exhibit the desired activity | Cn1c(=O)n(CCc2ccccc2)c2cc(Nc3ccnc4ccnn34)ccc21 [1-methyl-3-phenethyl-5-(pyrazolo[1,5-a]pyrimidin-7-ylamino)-1,3-dihydro-2H-benzo[d]imidazol-2-one] |
| 5.34 |  |  | Cn1c(=O)n(C[C@@H]2CCCN2CCO)c2cc(Nc3ccnc(Cl)c3C#N)ccc21 [Example 25g, (S)-2-chloro-4-((3-((1-(2-hydroxyethyl)pyrrolidin-2-yl)methyl)-1-methyl-2-oxo-2,3-dihydro-1H-benzo[d]imidazol-5-yl)amino)nicotinonitrile: formic acid (1:1)] |
| 6.44 |  |  | C[C@@H]1CN(c2ncc(Cl)c(Nc3cc4c(cc3F)n(C)c(=O)n4CCC(C)(C)O)n2)C[C@H](C)O1 [Example 20p] |
| 5.76 |  |  | COCC(C)(O)CCn1c(=O)n(C)c2ccc(Nc3nc(-n4nc(C)cc4C)ncc3Cl)cc21 (centres unmarked) [Example 15j] |

| Compound | HTRF pIC50 [1] | HTRF pIC50 [2] | activity in the HTRF assay |
| --- | --- | --- | --- |
| Cn1c(=O)n(CCC(C)(C)O)c2cc(Nc3nc(N4CCOCC4)ncc3Cl)ccc21 [Example 20t] | 6.51 |  |  |
| Cc1nc(C)c(-c2ncc(Cl)c(Nc3ccc4c(c3)n(CCC(C)(C)O)c(=O)n4C)n2)s1 [Example 23c] | 5.99 |  |  |
